Read-outs that look alike come from different tables or passages of the source.
How the values were obtained:
[1] = tested on: zebrafish of tup background; test: DMSO tolerance of zebrafish; format: in vivo
Experimental: Zebrafish of tup background were tested in batches of 10. DMSO was added to fish water on day 3 and fish examined daily up to day 9. […] Motoric behaviour was also normal.

[2] = tested on: epilepsy induced in the fish; test: anti-seizure effect in fish with induced epilepsy; format: in vivo; details: concentration in fish water
Text: Continuing with the example of epilepsy by way of illustration, in embodiments of this aspect of the present invention a known drug may be administered to the fish, for example sodium valproate. Epilepsy is then induced in the fish. Additional test substances, such as candidate chemicals, or genetic mutation may then be applied to the fish and assessed for their anti-epileptogenic effect. […] Any combination of these and/or other drugs or test substances may be arrayed in every possible combination and tested for synergistic efficacy. Appropriate doses vary from 1 nM to 100 mM, e.g. 0.1 μM to 10 mM, with 100 uM being a reasonable starting concentration to assess.

[3] = tested on: interleukin 11 transgene (tetracycline inducible system); details: mouse, in vivo; cited from earlier work
fish reared in nicotine [4] = details: for fish attracted to nicotine impregnated methyl cellulose: previously bathed at 5 ug/ml, 5 fish per group; for response/preference to nicotine: challenged 8 d.p.f. with 2.5 ug/ml nicotine in 3% methyl cellulose
Experimental: (§1) Fish were reared in nicotine from 2 dpf (immediately after hatching) to 7 d.p.f. at concentrations (in the fish water) of 0.5, 2.5, 5, 25, 50 ug/ml (5 fish per test group). The nicotine medium was then removed and replaced with E3M (embryo medium) at 7 d.p.f. They were then challenged at 8 d.p.f. with 2.5 ug/ml nicotine in 3% methyl cellulose.

fish reared in nicotine [5] = tested on: fish reared in nicotine
Experimental: as §1
Details of the toxicity dose/response experiment are given below: […]

[6] = 1% DMSO (10 ul/ml), added day 3, examined daily up to day 9

Structure (SMILES): C[S+](C)[O-] [DMSO, dimethyl sulphoxide]
- abnormality on detailed examination under dissecting microscope [1, 6]: no abnormality was detected
- motoric behaviour [1, 6]: normal
- DMSO concentration zebrafish can tolerate ([1]; final concentration in fish water): 1%

Structure (SMILES): CN1C(=O)CN=C(c2ccccc2)c2cc(Cl)ccc21 [diazepam]
- concentration showing therapeutic effects in monotherapy [2]: 35 µM

Structure (SMILES): C[C@H]1c2cccc(O)c2C(=O)C2=C(O)[C@]3(O)C(=O)C(C(N)=O)=C(O)[C@@H](N(C)C)[C@@H]3[C@@H](O)[C@@H]21 [doxycycline]
- toxicity to embryos treated in utero, pups or adults [3]: no apparent toxicity

Structure (SMILES): CN1CCCC1c1cccnc1 (stereo not shown) [nicotine]
- toxicity (fish reared in nicotine [4]; 25 ug/ml in fish water from 2 dpf): Toxicity was seen
- toxicity (fish reared in nicotine [4]; 50 ug/ml in fish water from 2 dpf): Toxicity was seen
- fish attracted to nicotine impregnated methyl cellulose (fish reared in nicotine [4]; by 4 mins): 2 fish
- fish attracted to nicotine impregnated methyl cellulose (fish reared in nicotine [4]; by 5 mins): 3 fish
- fish attracted to nicotine impregnated methyl cellulose (fish reared in nicotine [4]; by 15 mins): 4 fish
- response/preference to nicotine (fish reared in nicotine [4]; previously bathed in 0.5 ug/ml): no response/preference
- response/preference to nicotine (fish reared in nicotine [4]; previously bathed in 2.5 ug/ml): no response/preference
- escape response when prodded (fish reared in nicotine [5]; 0.5 ug/ml, 3 d.p.f.): escape response as above
- survival (fish reared in nicotine [5]; 0.5 ug/ml, 3 d.p.f.): all alive
- escape response when prodded (fish reared in nicotine [5]; 0.5 ug/ml, 4 d.p.f.): escape response as above
- survival (fish reared in nicotine [5]; 0.5 ug/ml, 4 d.p.f.): all alive
- escape response when prodded (fish reared in nicotine [5]; 2.5 ug/ml, 3 d.p.f.): escape response as above
- survival (fish reared in nicotine [5]; 2.5 ug/ml, 3 d.p.f.): all alive
- escape response when prodded (fish reared in nicotine [5]; 2.5 ug/ml, 4 d.p.f.): escape response as above
- survival (fish reared in nicotine [5]; 2.5 ug/ml, 4 d.p.f.): all alive
- escape response when prodded (fish reared in nicotine [5]; 5.0 ug/ml, 3 d.p.f.): escape response as above
- survival (fish reared in nicotine [5]; 5.0 ug/ml, 3 d.p.f.): all alive
- escape response when prodded (fish reared in nicotine [5]; 5.0 ug/ml, 4 d.p.f.): escape response as above
- survival (fish reared in nicotine [5]; 5.0 ug/ml, 4 d.p.f.): all alive
- escape response when prodded (fish reared in nicotine [5]; 25 ug/ml, 3 d.p.f.): twitch but no escape response when prodded
- survival (fish reared in nicotine [5]; 25 ug/ml, 3 d.p.f.): all alive
- escape response when prodded (fish reared in nicotine [5]; 25 ug/ml, 4 d.p.f.): twitch but no escape response when prodded
- survival (fish reared in nicotine [5]; 25 ug/ml, 4 d.p.f., 5 fish per group): 4 dead, 1 alive
- escape response when prodded (fish reared in nicotine [5]; 50 ug/ml, 3 d.p.f.): twitch but no escape response when prodded
- survival (fish reared in nicotine [5]; 50 ug/ml, 3 d.p.f.): all alive
- survival (fish reared in nicotine [5]; 50 ug/ml, 4 d.p.f.): all, dead

Reference: US20060115895A1, “Fish disease models and uses thereof” (priority 2002, published 2006)
